US20200368336A1, “METHOD FOR PREPARING PERSONALIZED CANCER VACCINE” (SHANGHAI JENOMED BIOTECH CO., LTD., priority 2017, published 2020)

System: mouse MHC molecule (MHC class I molecules)
Experiment: predicted affinity of short peptide chain to mouse MHC molecule (correlation analysis software)
Settings: mutant vs wild-type
Experimental: The tumor neoantigen of mice were analyzed by the following methods: mouse H-2 typing software was used to classify mouse H-2 molecules, and using software such as Sentieon TNscope, the DNA exome sequencing sequence of the peripheral blood mononuclear cells of cancer-bearing mice was used as a control to isolate tumor neoantigen from the sequencing sequence of CTC DNA exome of cancer-bearing mice, and the correlation analysis software was used to predict the affinity of the short peptide chain tumor neoantigen and its corresponding wild-type short peptide chain to the mouse MHC molecule.

Sequence: KAIRNVLII [preferred tumor neoantigen peptide screened from CTC of cancer-bearing mice]
- affinity of neoantigen higher than that of corresponding wild-type short peptide chain: about 556 times
